Test results reported in patent publication US20240075004A1, “VERY-LONG-CHAIN POLYUNSATURATED FATTY ACIDS, ELOVANOID HYDROXYLATED DERIVATIVES, AND METHODS OF USE” (The Board of Supervisors of Louisiana State University and …, priority 2020, published 2024).

Assays:
RPE and PRC = assay: Subretinal injection of OAβ in WT mice: fundus/OCT and ZO-1 whole flat mount of RPE; format: in vivo, C57BL/6J WT mice; conditions: for PRC degeneration (fundus, OCT): ELV injected alone (200 ng subretinal), six-month-old WT mice, 7 days; for RPE morphology (ZO-1 flat mount) / protection of PRC (OCT, PRC layer thickness): co-injected with OAβ, followed by topical application during 7 days
Procedure: All animal experiments were performed according to ARVO Statement for the Use of Animals in Ophthalmic and Vision Research, and the protocol was approved by LSU Health New Orleans' Institutional Animal Care and Use Committee (IACUC). 6-month-old 5×FAD mice (stock number: 34848-JAX, The Jackson Laboratory, Bar Harbor, ME, USA), co-overexpress FAD mutant forms of human amyloid precursor protein (the Swedish mutation: K670N, M671L; the Florida mutation: I716V; and the London mutation: V7171) and presenilin 1 (PS1, encoded by Psen1: M146L, L286V) transgenes under transcriptional control of the neuron-specific mouse Thy1 promoter. 5×FAD mice were hemizygotes with respect to the transgenes and non-transgenic WT littermates. Genotyping was performed by PCR of tail DNA. All analyses were carried out blind with respect to the mice genotype. For the subretinal injection, 6-month-old C57BL/6J mice were anesthetized by an intraperitoneal injection of ketamine/xylazine, pupils dilated with 1.0% tropicamide (Akorn, IL, USA); and 0.5% Proparacaine Hydrochloride (Akorn) was applied for topical anesthesia. Eyes were punctured with a 30-gauge needle between the corneoscleral junction and the ora serrata into the vitreous cavity without disturbing the lens. Compounds were delivered to the subretinal region using a 33-gauge blunt needle attached to a 5 μl Hamilton syringe (Hamilton Company, Reno, NV, USA) under a dissecting microscope. Non-injected mice were used as negative control while the PBS injected mice were used for sham. The injection volume was 2 μl containing PBS, 10 μM of OAβ, 10 μM of OAβ+200 ng ELV-N-32, 200 ng ELV-N-32 alone, 10 μM of OAβ+200 ng ELV-N-34 or 200 ng ELV-N-34 alone (n=12/group). All groups received topical drops: PBS only or ELV-N-32 (200 nM) or ELV-N-34 (200 nM), twice a day for 3 or 7 days.
For the whole mount RPE staining, eyeballs were enucleated and pre-fixed in 4% PFA for 15 min. Then the eye cup containing RPE sheet were fixed in 4% PFA for 30 min, washed in PBS 3× following the blocking step for 1 h at room temperature. The immunostaining was performed by incubating primary antibody (ZO-1) for 48 h at 4° C. Then the eye cups were washed 3× with PBS and incubated with the secondary antibody for 12 h at 4° C. The primary human RPE cells as well as mouse eye cups were embedded in ProLong™ Gold Antifade Mounting medium (Thermo Fisher Scientific) between two glass coverslips. Pictures were taken with Olympus FV1200 microscope (Olympus, Japan). Images were analyzed by software ImageJ (rsb.info.nih.gov/ij/).
7 days post-injection, mice were anesthetized with ip ketamine/xylazine, pupil dilated by topical 1.0% tropicamide and placed in a custom-built holder for OCT imaging (body temperature maintained at 38° C. with a heat pad). Retinas were imaged along the horizontal meridian through the optic nerve head using a Heidelberg Spectralis HRA OCT system (Heidelberg Engineering, Heidelberg, Germany). Axial resolution is […]. The raw OCT B-scans cross-sectional images were exported with the scale in m and opened in ImageJ (http//imagej.nih.gov/ij). The PRC layer thickness was defined as the width from the tip of the outer nuclear layer, right after the outer plexiform layer, to the outer segments of PRC. Three measurements were made on the same scan and averaged. Mean and standard error of the mean (SEM) were calculated (n=4/group). Students' T-test was used to calculate statistical significance and a P-value less than 0.05 was considered significant.

[1] = tested on: pro-inflammatory transcriptome and pro-homeostatic pathways in RPE single-cells; assay: UOS transcriptome in RPE single-cells; format: cell-based; conditions: 96 per sample
From the text: Dots in box plots represent expression of the gene for a single RPEC (total of 96 per sample). P<0.001 (***), P<0.01 (**), One-way Anova, with Post-Hoc Tukey HSD test for multiple comparisons.

[2] = methyl ester or sodium salt, cited from earlier work; for infarct volumes: administered 1 hour following 2 hours of ischemia by MCA occlusion; for cell survival / neurovascular unit disruption: administered 1 hour following 2 hours of ischemia
TP53 and IL8 = assay: Human adipocytes treated with IL1β: TP53 and IL8 expression by Taqman Real time PCR; format: cell-based
From the text: A) experimental design. B) expression levels of TP53 and IL8 in human diabetic and non-diabetic adipocytes by the means of Tagman Real time PCR.

[3] = tested on: autophagy, UPR, MMP, senescence and inflammation genes in HNEpC; assay: HNEpC challenged with HDM: gene expression; format: cell-based, human; conditions: 500 nM; HDM 30 μg/ml
Procedure: HDM triggered multiple signaling in human nasal epithelial cells. HNEpC challenged with HDM (D. farinae+D. pteronyssinus) (30 μg/ml) induces the expression of several genes related with autophagy (ATG3, ATG5, ATG7, BECLIN-1, and P62), unfolded protein response (UPR) (ATF6, CHOP, and IRE1) and matrix metalloproteinases (MMPs) (MMP8, MMP2, MMP9, MMP3, MMP12, TIMP1, and TIMP2). HDM stressors also induce the expression of senescence (P21, P16, P27, and P53) and inflammation genes (IL-1a, IL-6, and IL-10) on HNEpC. […] (*p<0.0001).

SMILES | PRC degeneration (fundus, OCT) (RPE and PRC) | RPE morphology (ZO-1 flat mount) (RPE and PRC) | protection of PRC (OCT, PRC layer thickness) (RPE and PRC) | UOS up-regulation of pro-inflammatory transcriptome and down-regulation of pro-homeostatic pathways [1] | infarct volumes [2] | cell survival [2] | neurovascular unit disruption [2] | IL8 brought down (elevated by IL1β) (TP53 and IL8; 500 nM, both diabetic and non-diabetic adipocytes) | levels of TP53 mRNA (TP53 and IL8; human adipocytes from diabetic patient treated with IL1β) | effect of IL1β (expression levels of TP53 and IL8) (TP53 and IL8; human diabetic adipocytes) | expression of MMP genes (MMP8, MMP2, MMP9, MMP3, MMP12, TIMP1, TIMP2) [3] | expression of inflammation / senescence-associated cytokine genes [3] | expression of senescence genes (P21, P16, P27; except P53) [3]
CC/C=C\C[C@H](O)\C=C/C=C/C=C/[C@H](O)C/C=C\C/C=C\CCCCCCCCCCCCC(=O)O [ELV-N-32] | did not yield PRC degeneration | restoration of RPE morphology | protection of PRC | suppress these changes | reduced | promoted | diminished |  |  |  |  |  | 
CC/C=C\C[C@H](O)\C=C/C=C/C=C/[C@H](O)C/C=C\C/C=C\CCCCCCCCCCCCCCC(=O)O [ELV-N-34] | did not yield PRC degeneration | restoration of RPE morphology | protection of PRC |  | reduced | promoted | diminished | around 40 folds | down to non-diabetic control levels | revert the effect | inhibits these effects | inhibits these effects | inhibits these effects
